In patent US11638712B2, “Bis(acetamidophenyl) guanidinophenylethylphosphonates for use in the prevention and/or treatment of PAR-related diseases” (Universiteit Antwerpen, priority 2016, dated 2023):
Where two headings read alike, the source gives them in different places.

Key:
tryptase = tryptase (Homo sapiens, UniProt Q15661); assay: in vitro serine protease inhibition profile: tryptase; type: biochemical
KLK2 = KLK2 (Homo sapiens, UniProt P20151); assay: in vitro serine protease inhibition profile: KLK2; type: biochemical
KLK8 = target: T1, KLK8 (Homo sapiens, UniProt O60259); assay: in vitro serine protease inhibition profile: KLK8; type: biochemical
T1 sequence (O60259 33-260): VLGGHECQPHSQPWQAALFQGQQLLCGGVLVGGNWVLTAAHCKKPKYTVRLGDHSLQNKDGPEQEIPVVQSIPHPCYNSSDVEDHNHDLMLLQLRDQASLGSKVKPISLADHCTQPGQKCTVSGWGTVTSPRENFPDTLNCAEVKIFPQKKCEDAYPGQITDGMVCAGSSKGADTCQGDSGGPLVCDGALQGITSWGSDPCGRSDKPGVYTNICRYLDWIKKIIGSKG

uPA = uPA (Homo sapiens, UniProt P00749); assay: in vitro serine protease inhibition profile: uPA; type: biochemical; conditions: read-out: IC50 uPA
HNE = target: T2, HNE (Homo sapiens, UniProt P08246); assay: in vitro serine protease inhibition profile: HNE; type: biochemical
T2 sequence (P08246 30-267): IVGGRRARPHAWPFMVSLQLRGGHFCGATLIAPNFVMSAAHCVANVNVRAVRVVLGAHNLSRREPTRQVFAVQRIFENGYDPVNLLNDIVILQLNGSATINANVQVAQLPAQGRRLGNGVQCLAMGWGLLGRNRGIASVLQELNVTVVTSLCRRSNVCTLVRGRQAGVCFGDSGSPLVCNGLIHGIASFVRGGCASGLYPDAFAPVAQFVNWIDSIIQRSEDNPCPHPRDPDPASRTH

tPA = tPA (Homo sapiens, UniProt P00750); assay: in vitro serine protease inhibition profile: tPA; type: biochemical
thrombin = target: T3, thrombin (Homo sapiens, UniProt P00734); assay: in vitro serine protease inhibition profile: thrombin; type: biochemical; conditions: read-out: IC50 thrombin
T3 construct: panel of serine proteases: uPA, tPA, thrombin, plasmin, FXIIa

post-colitis rats = assay: post-colitis rat model for visceral pain, visceromotor response (VMR) to colorectal distension; conditions: post-colitis rats, 10 mg/kg
Protocol: Male Sprague-Dawley rats (200-225 g; Charles River, Italy) were used in all experiments. Rats were housed at a constant room temperature (22±2° C.) and humidity (60%). The animals had unlimited access to water and food and were kept on a 12 h:12 h day-night cycle. They were allowed to acclimatize for at least 1 week before the start of the experiments.
In this set-up, a mild colitis was induced in the post-colitis group on day 0, using a TNBS-enema. The control group received an intrarectal administration with 0.9% NaCl. The presence of colitis was verified by a colonoscopy on day 3. From day 10 onwards, a colonoscopy was performed every 4 days to follow-up the healing of the colonic mucosa. When the colonic mucosa was completely healed, further experiments were performed 3 days later. […] After the VMR measurement, the animals were sacrificed.
TNBS-colitis was induced at day 0 using a TNBS-enema (4 mg TNBS, 50% ethanol). […] Control animals received 0.25 ml 0.9% NaCl intrarectally. The animals were kept in a tail-up position during 1 min and were then allowed to recover in a Trendelenburg position.
Electromyographic (EMG) electrodes were implanted into the external abdominal muscle and 3 days later, the VMR experiment was performed in conscious rats. A lubricated balloon (length 5 cm) was introduced into the colorectum of the animal and connected to a barostat (Distender Series II Barostat, G&J Electronics, Canada). The EMG electrodes were attached to a data-acquisition system and a phasic distension protocol (10-20-30-40-60 mmHg, 20 s, 4 min interval) was sent through the barostat. […] The VMR was quantified using the area under the curve (AUC) of the EMG signal during the distension (20 s) corrected for the EMG signal before the distension (20 s).
22.0. The results of the VMR experiments analyzed using a Generalized Estimating Equations (GEE) test with Least Significant Difference (LSD) post-hoc test. A p-value<0.05 was considered as being statistically significant. The graphs were made with GraphPad Prism 6.0.
Visceral sensitivity was assessed using the visceromotor responses (VMRs) to a colorectal distension, shown in the graphs below as area under the curve (AUC; y-axis; μV.20 s-1) for each distension pressure (x-axis; mmHg). Serine proteases seem to play an important role in the pathogenesis of visceral pain.

KLK1 = KLK1 (Homo sapiens, UniProt P06870); assay: in vitro serine protease inhibition profile: KLK1; type: biochemical
matriptase = target: T4, matriptase (Homo sapiens, UniProt Q9Y5Y6); assay: in vitro serine protease inhibition profile: matriptase; type: biochemical
T4 sequence (Q9Y5Y6 1-855): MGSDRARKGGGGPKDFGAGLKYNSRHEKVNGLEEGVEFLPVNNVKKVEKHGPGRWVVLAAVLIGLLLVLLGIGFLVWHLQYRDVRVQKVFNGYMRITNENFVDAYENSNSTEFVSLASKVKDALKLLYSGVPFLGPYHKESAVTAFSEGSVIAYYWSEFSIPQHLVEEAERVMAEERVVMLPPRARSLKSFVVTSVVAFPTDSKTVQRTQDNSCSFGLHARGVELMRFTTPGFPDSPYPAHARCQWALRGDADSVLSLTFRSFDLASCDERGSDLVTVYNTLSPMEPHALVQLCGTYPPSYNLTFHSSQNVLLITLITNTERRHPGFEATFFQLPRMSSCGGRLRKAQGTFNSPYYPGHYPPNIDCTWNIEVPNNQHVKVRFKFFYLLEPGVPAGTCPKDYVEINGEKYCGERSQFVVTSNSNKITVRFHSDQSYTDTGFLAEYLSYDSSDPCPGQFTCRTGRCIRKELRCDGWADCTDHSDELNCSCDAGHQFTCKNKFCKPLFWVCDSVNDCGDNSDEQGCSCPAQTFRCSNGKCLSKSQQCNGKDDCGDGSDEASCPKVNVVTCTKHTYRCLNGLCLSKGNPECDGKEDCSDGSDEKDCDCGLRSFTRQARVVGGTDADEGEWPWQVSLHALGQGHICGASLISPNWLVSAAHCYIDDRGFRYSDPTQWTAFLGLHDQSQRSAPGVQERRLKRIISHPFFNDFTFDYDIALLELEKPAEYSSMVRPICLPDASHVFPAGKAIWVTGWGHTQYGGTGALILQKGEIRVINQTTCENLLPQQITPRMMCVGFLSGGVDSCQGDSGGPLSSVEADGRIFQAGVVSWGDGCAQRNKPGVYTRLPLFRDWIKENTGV

cathepsinG = target: T5, cathepsinG (Homo sapiens, UniProt P08311); assay: in vitro serine protease inhibition profile: cathepsinG; type: biochemical
T5 sequence (P08311 21-244): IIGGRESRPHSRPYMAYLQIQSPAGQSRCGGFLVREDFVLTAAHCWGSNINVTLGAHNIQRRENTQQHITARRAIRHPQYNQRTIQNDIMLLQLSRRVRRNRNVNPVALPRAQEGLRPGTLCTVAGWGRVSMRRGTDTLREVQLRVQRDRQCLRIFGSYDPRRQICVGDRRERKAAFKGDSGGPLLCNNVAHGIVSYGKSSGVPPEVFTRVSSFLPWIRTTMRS

plasmin = target: T6, plasmin (Homo sapiens, UniProt P00747); assay: in vitro serine protease inhibition profile: plasmin; type: biochemical
T6 construct: panel of serine proteases: uPA, tPA, thrombin, plasmin, FXIIa

KLK4 = KLK4 (Homo sapiens, UniProt Q9Y5K2); assay: in vitro serine protease inhibition profile: KLK4; type: biochemical
FXIIa = target: T7, FXIIa (Homo sapiens, UniProt P00748); assay: in vitro serine protease inhibition profile: FXIIa; type: biochemical
T7 construct: panel of serine proteases: uPA, tPA, thrombin, plasmin, FXIIa
T7 sequence (P00748 373-615 limits assumed, other chains not shown): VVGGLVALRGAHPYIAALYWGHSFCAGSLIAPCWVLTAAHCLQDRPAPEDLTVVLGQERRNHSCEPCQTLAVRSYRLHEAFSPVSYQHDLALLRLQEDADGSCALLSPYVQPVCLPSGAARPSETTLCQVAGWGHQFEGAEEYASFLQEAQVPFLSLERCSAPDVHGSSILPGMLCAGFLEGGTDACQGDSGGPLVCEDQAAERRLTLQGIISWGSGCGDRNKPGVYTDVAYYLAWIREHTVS

Sequence of tryptase (Q15661 31-275): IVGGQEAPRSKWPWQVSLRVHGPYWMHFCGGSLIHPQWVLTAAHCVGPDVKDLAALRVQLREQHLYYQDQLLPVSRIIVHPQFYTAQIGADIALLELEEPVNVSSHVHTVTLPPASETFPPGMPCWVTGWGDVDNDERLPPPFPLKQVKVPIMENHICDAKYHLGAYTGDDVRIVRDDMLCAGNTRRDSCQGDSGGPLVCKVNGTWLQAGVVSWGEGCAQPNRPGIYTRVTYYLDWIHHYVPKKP
Sequence of KLK1 (P06870 25-262, species assumed): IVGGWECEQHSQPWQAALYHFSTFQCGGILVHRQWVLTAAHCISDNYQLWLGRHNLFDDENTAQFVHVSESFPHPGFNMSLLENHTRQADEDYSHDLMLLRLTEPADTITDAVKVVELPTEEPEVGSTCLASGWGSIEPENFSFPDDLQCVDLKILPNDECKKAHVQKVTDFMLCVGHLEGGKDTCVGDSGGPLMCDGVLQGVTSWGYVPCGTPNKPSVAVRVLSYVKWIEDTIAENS
Sequence of tPA (P00750 36-562, species assumed): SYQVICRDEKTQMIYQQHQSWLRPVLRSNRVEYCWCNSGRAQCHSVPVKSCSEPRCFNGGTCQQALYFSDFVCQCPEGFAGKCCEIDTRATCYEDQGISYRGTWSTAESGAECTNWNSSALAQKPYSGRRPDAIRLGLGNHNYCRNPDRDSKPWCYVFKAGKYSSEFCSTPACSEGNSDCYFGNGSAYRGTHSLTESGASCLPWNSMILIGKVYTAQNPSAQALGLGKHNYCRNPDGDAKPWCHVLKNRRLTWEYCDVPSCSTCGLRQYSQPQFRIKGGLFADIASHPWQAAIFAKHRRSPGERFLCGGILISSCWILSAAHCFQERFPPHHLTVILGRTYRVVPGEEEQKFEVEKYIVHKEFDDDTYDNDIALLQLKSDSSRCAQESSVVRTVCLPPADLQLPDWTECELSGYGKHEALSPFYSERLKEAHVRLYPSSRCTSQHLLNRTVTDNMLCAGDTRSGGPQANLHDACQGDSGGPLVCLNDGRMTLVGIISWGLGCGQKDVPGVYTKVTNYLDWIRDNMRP
Sequence of KLK2 (P20151 25-261, species assumed): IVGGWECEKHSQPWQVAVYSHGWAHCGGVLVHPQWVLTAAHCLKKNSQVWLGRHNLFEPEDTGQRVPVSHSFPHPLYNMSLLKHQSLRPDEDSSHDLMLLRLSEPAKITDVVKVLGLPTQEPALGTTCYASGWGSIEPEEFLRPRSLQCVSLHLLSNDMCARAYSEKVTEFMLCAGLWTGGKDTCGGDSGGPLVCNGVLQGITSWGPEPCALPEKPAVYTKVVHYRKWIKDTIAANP
T6 sequence (P00747 581-810 limits assumed, species assumed): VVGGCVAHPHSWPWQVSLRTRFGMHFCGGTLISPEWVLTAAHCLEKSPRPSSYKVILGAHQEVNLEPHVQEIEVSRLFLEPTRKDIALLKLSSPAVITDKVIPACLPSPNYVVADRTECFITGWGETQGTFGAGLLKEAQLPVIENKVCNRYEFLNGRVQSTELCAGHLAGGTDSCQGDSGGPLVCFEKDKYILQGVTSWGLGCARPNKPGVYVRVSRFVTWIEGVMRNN
T6 sequence (P00747 97-580 partner limits assumed, species assumed): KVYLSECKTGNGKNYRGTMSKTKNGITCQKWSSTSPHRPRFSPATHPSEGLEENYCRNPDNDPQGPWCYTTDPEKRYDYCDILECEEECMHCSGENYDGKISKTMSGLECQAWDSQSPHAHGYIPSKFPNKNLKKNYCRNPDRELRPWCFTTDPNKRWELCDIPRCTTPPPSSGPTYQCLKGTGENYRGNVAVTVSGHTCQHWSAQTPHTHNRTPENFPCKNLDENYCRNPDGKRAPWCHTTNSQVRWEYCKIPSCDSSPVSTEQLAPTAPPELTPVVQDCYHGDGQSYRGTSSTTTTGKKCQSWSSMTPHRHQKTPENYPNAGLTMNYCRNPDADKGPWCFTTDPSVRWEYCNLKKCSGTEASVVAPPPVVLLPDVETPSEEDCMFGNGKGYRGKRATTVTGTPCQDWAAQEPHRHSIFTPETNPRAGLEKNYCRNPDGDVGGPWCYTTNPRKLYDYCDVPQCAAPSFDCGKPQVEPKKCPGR
Sequence of KLK4 (Q9Y5K2 31-254, species assumed): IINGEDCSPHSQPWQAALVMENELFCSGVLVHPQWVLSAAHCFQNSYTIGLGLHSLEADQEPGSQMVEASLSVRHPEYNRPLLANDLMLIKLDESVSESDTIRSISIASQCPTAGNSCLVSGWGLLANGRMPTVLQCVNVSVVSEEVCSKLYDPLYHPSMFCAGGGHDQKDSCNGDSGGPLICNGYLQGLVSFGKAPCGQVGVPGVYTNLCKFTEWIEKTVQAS

Row | SMILES | IC50 (matriptase) | IC50 (tryptase) | IC50 (plasmin) | IC50 (KLK2) | IC50 (KLK8) | IC50 (HNE) | IC50 (tPA) | IC50 (KLK1) | other results
1 | N=C(N)c1ccc2cc(OC(=O)c3ccc(N=C(N)N)cc3)ccc2c1 [Nafamostat] |  |  |  |  |  |  |  |  | IC50 (tryptase; read-out: IC50 tryptase): < 1 nM; IC50 (KLK2; read-out: IC50 KLK2): ~100 nM; IC50 (KLK8; read-out: IC50 KLK8): ~15 nM; IC50 (uPA): < 1 nM; IC50 (HNE; read-out: IC50 HNE): > 2500 nM; IC50 (tPA; read-out: IC50 tPA): > 2500 nM; IC50 (thrombin): ~500000 nM; effect on VMRs (visceral pain) (post-colitis rats): no significant effect on visceral pain could be detected; IC50 (KLK1; read-out: IC50 KLK1): ~1000 nM
2 | COC(=O)NC(Cc1ccc(NC(=N)N)cc1)P(=O)(Oc1ccc(NC(C)=O)cc1)Oc1ccc(NC(C)=O)cc1 (centres unmarked) [Compound 2] | 8 nM | 3 nM | > 2500 nM | 315 nM | 13 nM | > 2500 nM | > 2500 nM | > 2500 nM | IC50 (cathepsinG): 61 nM; IC50 (KLK4): 26 nM; IC50 (FXIIa): 3140 nM
3 | N=C(N)Nc1ccc(CC(NC(=O)OCc2ccccc2)P(=O)(Oc2ccccc2)Oc2ccccc2)cc1 (centres unmarked) [Compound 3] | 150 nM | 83 nM | > 2500 nM | 90 nM | 42 nM | > 2500 nM | > 2500 nM | > 2500 nM | IC50 (KLK4; read-out: IC50 KLK4): 12 nM
